This is an account of results in ChEMBL document CHEMBL1137721, “Modeling the activity of furin inhibitors using artificial neural network” (Eur J Med Chem, 2009).

Usually Ki stands for a measure of affinity in units of concentration, obtained from inhibition or displacement.

The target of the assay is Furin (Homo sapiens, UniProt P09958). Put plainly: Inhibition of human recombinant furin-dependent anthrax protective antigen processing.
Furin, sequence (P09958 whole entry): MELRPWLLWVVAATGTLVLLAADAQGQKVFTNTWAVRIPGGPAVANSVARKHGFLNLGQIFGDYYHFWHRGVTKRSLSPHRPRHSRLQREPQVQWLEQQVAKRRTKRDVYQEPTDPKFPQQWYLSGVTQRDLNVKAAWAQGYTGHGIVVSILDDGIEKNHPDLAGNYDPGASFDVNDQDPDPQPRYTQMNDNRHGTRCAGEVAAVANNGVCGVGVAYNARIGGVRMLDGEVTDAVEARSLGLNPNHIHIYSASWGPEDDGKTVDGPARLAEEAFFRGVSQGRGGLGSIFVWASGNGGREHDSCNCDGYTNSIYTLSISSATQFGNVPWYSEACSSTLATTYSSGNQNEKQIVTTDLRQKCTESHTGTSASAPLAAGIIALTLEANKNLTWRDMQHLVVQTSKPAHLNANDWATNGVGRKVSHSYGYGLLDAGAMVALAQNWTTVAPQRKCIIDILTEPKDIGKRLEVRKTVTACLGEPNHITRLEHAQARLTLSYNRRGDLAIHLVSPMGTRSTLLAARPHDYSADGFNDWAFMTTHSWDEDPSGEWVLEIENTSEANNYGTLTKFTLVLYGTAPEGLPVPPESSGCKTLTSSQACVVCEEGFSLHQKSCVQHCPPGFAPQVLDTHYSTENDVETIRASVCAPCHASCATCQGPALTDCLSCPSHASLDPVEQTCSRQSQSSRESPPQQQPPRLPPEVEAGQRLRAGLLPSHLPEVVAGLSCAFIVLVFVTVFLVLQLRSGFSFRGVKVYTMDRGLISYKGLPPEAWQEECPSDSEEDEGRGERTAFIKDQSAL
As to `N=C(N)Nc1ccc(O[C@H]2C[C@@H](Oc3ccc(NC(=N)N)cc3NC(=N)N)[C@H](NC(=N)N)C[C@@H]2NC(=N)N)c(NC(=N)N)c1`, the Ki stood at 0.169 µM.
The value for `NC(N)=N[C@H]1C[C@@H](N=C(N)N)[C@H](Oc2ccccn2)C[C@@H]1Oc1ccccn1` was 100 µM; that for `NC(N)=Nc1ccc(O[C@H]2C[C@@H](Oc3ccc(N=C(N)N)c4ccccc34)[C@H](N=C(N)N)C[C@@H]2N=C(N)N)c(N=C(N)N)c1` was 0.404 µM; that for `N=C(N)Nc1ccc(NC(=O)O[C@H]2C[C@@H](OC(=O)Nc3ccc(NC(=N)N)cc3)[C@H](NC(=N)N)C[C@@H]2NC(=N)N)cc1` was 0.812 µM.
As to `NC(N)=Nc1ccc(N[C@H]2C[C@@H](N=C(N)N)[C@H](Oc3ccc(N=C(N)N)c4ccccc34)C[C@@H]2Oc2ccc(N=C(N)N)c3ccccc23)c2ccccc12`, the Ki was found to be 0.423 µM.
The value for `NC(N)=Nc1ccc(O[C@H]2C[C@@H](Oc3ccc(N=C(N)N)cc3)[C@H](N=C(N)N)C[C@@H]2N=C(N)N)cc1` was 0.012 µM.
`NC(N)=Nc1ccccc1O[C@H]1C[C@@H](Oc2ccccc2N=C(N)N)[C@H](N=C(N)N)C[C@@H]1N=C(N)N`: the Ki was determined as 100 µM.
As for `NC(N)=Nc1cccnc1O[C@H]1C[C@@H](Oc2ncccc2N=C(N)N)[C@H](N=C(N)N)C[C@@H]1N=C(N)N`, the inhibitory constant (Ki) came out at 100 µM.
On to `N=C(N)Nc1ccc(O[C@H]2C[C@@H](Oc3ccc(NC(=N)N)cn3)[C@H](NC(=N)N)C[C@@H]2NC(=N)N)nc1`, for which the Ki turned out to be 0.042 µM.
With `N=C(N)N[C@H]1C[C@@H](NC(=N)N)[C@H](Oc2ccc3nc(N)[nH]c3c2)C[C@@H]1Oc1ccc2nc(N)[nH]c2c1`, the Ki stood at 100 µM.
As for `N=C(N)Nc1ccc(O[C@H]2C[C@@H](Oc3ccc(NC(=N)N)c4ccccc34)[C@H](NC(=N)N)C[C@@H]2NC(=N)N)cc1`, the inhibition constant (Ki) came to 0.006 µM.
In the case of `NC(N)=Nc1ccc(O[C@@H]2C[C@H](Oc3ccc(N=C(N)N)cc3N=C(N)N)[C@@H](N=C(N)N)C[C@H]2N=C(N)N)cc1`, the inhibition constant (Ki) amounted to 0.089 µM.
For `NC(N)=Nc1ccc(O[C@H]2C[C@@H](Oc3ccc(N=C(N)N)c4ccccc34)[C@H](N=C(N)N)C[C@@H]2N=C(N)N)c2ccccc12` the value was 0.069 µM.
Regarding `NC(N)=Nc1ccc(N[C@H]2C[C@@H](N=C(N)N)[C@H](Oc3ccc(N=C(N)N)cc3)C[C@@H]2Oc2ccc(N=C(N)N)cc2)cc1`, the Ki is 0.046 µM.
In the case of `NC(N)=Nc1cccc(NC(=O)O[C@H]2C[C@@H](OC(=O)Nc3cccc(N=C(N)N)c3)[C@H](N=C(N)N)C[C@@H]2N=C(N)N)c1`, the Ki amounted to 1.77 µM.
Consider `N=C(N)Nc1ccccc1NC(=O)O[C@H]1C[C@@H](OC(=O)Nc2ccccc2NC(=N)N)[C@H](NC(=N)N)C[C@@H]1NC(=N)N`, for which the Ki worked out at 100 µM.
Turning to `NC(N)=Nc1cnccc1O[C@H]1C[C@@H](Oc2ccncc2N=C(N)N)[C@H](N=C(N)N)C[C@@H]1N=C(N)N`, the Ki turned out to be 100 µM.
As for `N=C(N)Nc1ccc(O[C@H]2C[C@@H](Oc3ccc(NC(=N)N)c4ccccc34)[C@H](NC(=N)N)C[C@@H]2NC(=N)N)c(N)c1`, the Ki is 0.022 µM.
